Results: ChEMBL document CHEMBL1201862, “PubChem BioAssay data set” (2004)
Calls of active or inactive are those of the source.

What was measured:
[1] = HEp-2 cell cytotoxicity, dose response, cytotoxicity control for RSV inhibitor project, HTS (AID 2410); assay type: functional; conditions: human respiratory syncytial virus
H9c2 = experiment: cells; assay type: functional, cell-based; conditions: Rattus norvegicus, H9c2, Myocardium;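 further: confirmatory concentration-response retest of ultra-high-throughput screening hits for modulation of myocardial damage; cell death induced by hydrogen peroxide oxidative stress; compound pretreatment for 60 min then peroxide exposure for 2 h; potency is for protecting the cells against peroxide damage rather than for killing them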
[2] = molecular target: T1, Small ubiquitin-related modifier 1 (Homo sapiens, UniProt P63165); experiment: inhibitors of SUMO1 peptide binding, dose response, biochemical, fluorescence polarization, uHTS hits (AID 624382); assay type: functional; conditions: read-out: IC50_Mean
T1 sequence (P63165 whole entry): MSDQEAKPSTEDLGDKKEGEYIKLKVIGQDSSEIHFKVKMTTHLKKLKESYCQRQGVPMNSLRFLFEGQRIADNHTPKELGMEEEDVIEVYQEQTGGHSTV

[3] = molecular target: T1, Small ubiquitin-related modifier 1; experiment: inhibitors of SUMO1 partner interactions, dose response, biochemical, FRET (AID 624383); assay type: functional; conditions: read-out: IC50_Mean
Nonstructural protein 1 = Nonstructural protein 1 (Influenza A virus, UniProt Q194T2); assay type: functional, Influenza A virus (A/California/07/2009(H1N1))
Nonstructural protein 1, sequence (Q194T2 whole entry): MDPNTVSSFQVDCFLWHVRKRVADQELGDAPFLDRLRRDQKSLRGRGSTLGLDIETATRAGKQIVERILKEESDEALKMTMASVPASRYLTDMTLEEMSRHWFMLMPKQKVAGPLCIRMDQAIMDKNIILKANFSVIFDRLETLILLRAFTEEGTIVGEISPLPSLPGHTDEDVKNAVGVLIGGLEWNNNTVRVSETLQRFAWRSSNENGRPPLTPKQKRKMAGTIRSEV

Genome polyprotein = Genome polyprotein (dengue virus type 2, UniProt P29990); experiment: Dengue-2 NS5 methyltransferase inhibitors, primary screen, biochemical, confirmation dose response (AID 588689); assay type: functional
Genome polyprotein, sequence (P29990 2492-3391 limits assumed): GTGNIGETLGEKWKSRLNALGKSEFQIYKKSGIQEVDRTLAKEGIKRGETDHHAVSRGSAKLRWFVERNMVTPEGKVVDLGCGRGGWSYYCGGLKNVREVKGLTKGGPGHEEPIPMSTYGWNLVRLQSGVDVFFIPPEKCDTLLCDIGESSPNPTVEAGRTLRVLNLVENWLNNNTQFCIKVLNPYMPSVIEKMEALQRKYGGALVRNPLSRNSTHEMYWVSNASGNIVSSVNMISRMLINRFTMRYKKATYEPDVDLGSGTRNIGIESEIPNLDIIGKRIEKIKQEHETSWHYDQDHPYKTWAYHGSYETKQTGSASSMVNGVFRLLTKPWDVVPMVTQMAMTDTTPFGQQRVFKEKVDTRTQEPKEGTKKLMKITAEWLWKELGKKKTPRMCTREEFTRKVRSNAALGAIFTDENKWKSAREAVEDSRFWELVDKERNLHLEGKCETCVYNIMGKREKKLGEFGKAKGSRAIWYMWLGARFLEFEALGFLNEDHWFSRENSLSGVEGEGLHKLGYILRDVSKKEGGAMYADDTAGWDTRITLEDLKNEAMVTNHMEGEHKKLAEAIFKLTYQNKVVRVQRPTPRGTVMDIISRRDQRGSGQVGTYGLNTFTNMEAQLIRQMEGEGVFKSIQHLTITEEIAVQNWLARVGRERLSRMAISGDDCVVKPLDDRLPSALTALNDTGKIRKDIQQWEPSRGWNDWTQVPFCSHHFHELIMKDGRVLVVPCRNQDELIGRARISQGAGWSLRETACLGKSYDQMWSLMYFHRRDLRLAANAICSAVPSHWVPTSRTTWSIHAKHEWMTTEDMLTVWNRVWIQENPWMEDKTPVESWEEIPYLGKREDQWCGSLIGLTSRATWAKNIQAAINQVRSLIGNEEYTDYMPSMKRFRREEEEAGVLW

[4] = molecular target: Heat shock protein HSP 90-alpha (Homo sapiens, UniProt P07900); assay type: functional, organism-based
SN12K1 = experiment: cells; assay type: functional; conditions: Homo sapiens
[5] = molecular target: Luciferin 4-monooxygenase (Photinus pyralis, UniProt P08659); experiment: firefly luciferase enzyme inhibitors, dose response, biochemical, luminescence (AID 1891)
Luciferin 4-monooxygenase, sequence (P08659 whole entry): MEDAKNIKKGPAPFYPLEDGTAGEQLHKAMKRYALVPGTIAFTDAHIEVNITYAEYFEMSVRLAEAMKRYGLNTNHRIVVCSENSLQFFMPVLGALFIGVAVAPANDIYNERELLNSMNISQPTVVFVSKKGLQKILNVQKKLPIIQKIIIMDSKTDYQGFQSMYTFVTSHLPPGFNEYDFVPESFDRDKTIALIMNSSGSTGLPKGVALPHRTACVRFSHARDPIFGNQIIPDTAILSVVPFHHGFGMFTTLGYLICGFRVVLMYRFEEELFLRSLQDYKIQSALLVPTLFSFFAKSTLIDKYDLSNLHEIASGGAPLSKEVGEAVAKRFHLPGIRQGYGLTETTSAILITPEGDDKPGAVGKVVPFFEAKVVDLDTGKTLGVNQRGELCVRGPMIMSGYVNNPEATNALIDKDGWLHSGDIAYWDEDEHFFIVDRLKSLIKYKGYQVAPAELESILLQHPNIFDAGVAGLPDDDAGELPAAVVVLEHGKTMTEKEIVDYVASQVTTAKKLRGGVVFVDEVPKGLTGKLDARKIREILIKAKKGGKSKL

[6] = Luminescence Cell-Based Dose Confirmation HTS to Identify Inhibitors of Platelet Dense Granule Release. [Related pubchem assays: 1663 (Primary HTS), 1678 (Summary of Project)]; assay type: functional
[7] = inhibitors of HIV Env-driven cell fusion, dose response, cherry-pick (AID 652057); assay type: functional, cell-based
[8] = inhibitors of clade B AD8 Env fusion, dose response, cell-based, cherry-pick (AID 652062); assay type: functional;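 further: luciferase signal from cell-cell fusion driven by HIV-1 clade B AD8 Env; potency is for inhibitors of fusion seen as a drop in luminescence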
[9] = ZM109 Env clade C HIV-1 fusion inhibitors, dose response, HeLa effector, CEM target cells, luciferase, cherry-pick (AID 652058); assay type: functional, cell-based
Aminopeptidase N = molecular target: T2, Aminopeptidase N (Plasmodium falciparum FcB1/Columbia, UniProt O96935); experiment: P. falciparum M1AAP inhibitors, biochemical, fluorogenic H-Leu-NHMec substrate, 1536-well (AID 1445); set-up: species or system Plasmodium falciparum 3D7, 3D7
T2 sequence (O96935 whole entry): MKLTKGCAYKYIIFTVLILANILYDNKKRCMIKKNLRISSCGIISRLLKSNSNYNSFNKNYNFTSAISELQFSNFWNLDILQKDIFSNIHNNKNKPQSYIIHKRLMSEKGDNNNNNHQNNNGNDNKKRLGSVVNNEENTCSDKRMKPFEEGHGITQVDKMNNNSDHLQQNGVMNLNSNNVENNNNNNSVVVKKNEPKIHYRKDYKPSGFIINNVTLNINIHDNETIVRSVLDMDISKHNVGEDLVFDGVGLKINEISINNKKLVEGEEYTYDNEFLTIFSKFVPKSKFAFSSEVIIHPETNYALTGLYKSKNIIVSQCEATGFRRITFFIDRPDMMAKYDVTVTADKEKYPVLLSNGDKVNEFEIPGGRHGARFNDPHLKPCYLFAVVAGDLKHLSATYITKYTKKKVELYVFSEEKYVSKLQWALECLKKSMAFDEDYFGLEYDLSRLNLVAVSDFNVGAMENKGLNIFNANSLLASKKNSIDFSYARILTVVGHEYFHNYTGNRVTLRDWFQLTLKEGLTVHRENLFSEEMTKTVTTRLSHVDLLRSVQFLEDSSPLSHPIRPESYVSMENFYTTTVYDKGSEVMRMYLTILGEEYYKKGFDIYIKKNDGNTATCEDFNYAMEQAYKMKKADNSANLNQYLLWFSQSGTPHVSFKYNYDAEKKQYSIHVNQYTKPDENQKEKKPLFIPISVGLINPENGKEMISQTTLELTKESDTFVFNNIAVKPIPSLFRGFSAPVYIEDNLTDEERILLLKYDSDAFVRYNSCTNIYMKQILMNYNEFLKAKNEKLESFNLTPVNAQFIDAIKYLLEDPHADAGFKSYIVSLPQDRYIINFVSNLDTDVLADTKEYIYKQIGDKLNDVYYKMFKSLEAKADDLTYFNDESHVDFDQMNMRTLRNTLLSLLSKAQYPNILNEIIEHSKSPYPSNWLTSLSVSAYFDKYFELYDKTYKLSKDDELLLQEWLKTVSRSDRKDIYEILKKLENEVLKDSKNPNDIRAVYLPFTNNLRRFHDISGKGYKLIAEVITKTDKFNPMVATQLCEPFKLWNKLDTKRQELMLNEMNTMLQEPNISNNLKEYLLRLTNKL

[10] = test system: Streptococcus sp. 'group A'; experiment: growth inhibition of control SK(-) GAS strain, dose response, counter-screen for streptokinase expression inhibitor project, luminescence, kanamycin, BacTiterGlo, confirmation (AID 1900); assay type: functional, organism-based
BJ [11] = experiment: cytotoxicity toward BJ-TERT fibroblasts, dose response, cell-based, RAS-independent, luminescence (AID 1933); assay type: functional; conditions: Homo sapiens
Streptococcus = experiment: Group A Streptococcus viability loss, dose response, counter-screen for streptokinase expression inhibitor project, luminescence, BacTiterGlo (AID 1915); assay type: functional, organism-based;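 further: potency for reduction of bacterial viability or growth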
BJ [12] = experiment: cells; assay type: functional, cell-based; conditions: Homo sapiens
[13] = cytotoxicity toward DRD oncogenic fibroblasts, dose response, cell-based, non-viral oncogenic, luminescence (AID 1934); assay type: functional; conditions: Homo sapiens
BJ [14] = experiment: cytotoxicity toward BJ-TERT-LT-ST fibroblasts, dose response, cell-based, RAS-independent, luminescence (AID 1935); assay type: functional; conditions: Homo sapiens;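 further: BJ fibroblasts immortalized with TERT plus LT and ST oncogenes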

With `CCn1c(NCc2cc(Cl)ccc2O)nc2ccccc21` as the compound, how does the CC50 [1] read?
Its CC50 is 44.7 µM (active).

Which IC50 (H9c2) does the source give for `O=C(COc1cccc2c1CCNC2=O)Nc1cccc(F)c1` here?
Its IC50 is > 79 µM (inactive).

With `O=C(O)CP(=O)(c1ccccc1)c1ccccc1` as the compound, how does the IC50 [2] read?
The IC50 was > 66.6 µM (inactive).

What about the IC50 [3] of the same compound?
The IC50 was 100 µM (inactive).

For `CCn1c(=O)c(C(=O)NC(C)c2ccccc2)c(O)c2ccccc21` (centres undefined), which IC50 (H9c2) is on record?
Its IC50 is 13.5 µM (active).

Which IC50 (Nonstructural protein 1) does the source give for `COc1cccc(C=NNC(=O)c2ccncc2)c1O` here?
The IC50 was 6.26 µM (active).

Which IC50 (Genome polyprotein) does the source give for `CCCCCCCC1=NN(c2ccc(S(=O)(=O)O)cc2)C(=O)C1N=O` (centres undefined) here?
The IC50 was 27.4 µM (active).

Which AC50 [4] does the source give for `CCN1CCCC1CN(Cc1cc2ccc(C)cc2nc1O)C(S)=Nc1ccc(F)cc1` (centres undefined) here?
The AC50 was 2.64 µM (active).

With `CCOC(=O)C(C)Oc1ccc(C2NC(=O)NC(C)=C2C(C)=O)cc1Br` (centres undefined) as the compound, how does the IC50 (H9c2) read?
Its IC50 is 30.6 µM (inactive).

Which IC50 (Genome polyprotein) does the source give for `O=C(O)c1ccc(N=N/C(=N\Nc2ccc(C(=O)O)cc2)c2ccccc2)cc1` here?
Its IC50 is 30.4 µM (active).

For `O=c1cc(O)ccn1C1C=C(CO)C(O)C1O` (centres undefined), which GI50 (SN12K1) is on record?
Its GI50 is > 625 µM (inactive).

Which results are given for `Oc1ccc(/C=N/NC(=S)N/N=C/c2ccc(O)cc2)cc1`?
EC50 [5]: 0.316 µM (active); EC50 [6]: 0.317 µM (active)

With `CC1(C)C2CC[C@]3(C)[C@H](C(=O)C=C4[C@@H]5C[C@@](C)(C(=O)O)CC[C@]5(C)CC[C@]43C)[C@@]2(C)CC[C@@H]1O[C@H]1O[C@H](C(=O)O)[C@@H](O)[C@H](O)[C@H]1O[C@@H]1O[C@H](C(=O)O)[C@@H](O)[C@H](O)[C@H]1O` (some centres undefined) as the compound, how does the IC50 [2] read?
Its IC50 is > 66.6 µM (inactive).

What about the IC50 [3] of the same compound?
Its IC50 is 9.45 µM (active).

Which AC50 [7] does the source give for `COc1ccc(S(=O)(=O)Nc2ccc3c(c2)CC(=O)N([C@H](C)CO)C[C@H](C)[C@H](CN(C)S(=O)(=O)c2ccccc2)O3)cc1` here?
Its AC50 is < 0.26 µM (active).

What about the AC50 [8] of the same compound?
Its AC50 is 2.09 µM (active).

Which results are given for `Cc1noc(C)c1S(=O)(=O)N(C)C[C@@H]1Oc2ccc(NC(=O)NC3CCCCC3)cc2CC(=O)N([C@H](C)CO)C[C@@H]1C`?
AC50 [7]: 5.98 µM (active); AC50 [8]: 4.26 µM (active); AC50 [9]: 4.3 µM (active)

For `C/C(=N\Nc1nc(C(=O)O)cs1)c1ccccc1`, which IC50 (Aminopeptidase N) is on record?
Its IC50 is 34.2 µM (active).

For `O=C(O)/C(CC(=O)c1ccc(Cl)cc1)=N/Nc1ccc([N+](=O)[O-])cc1[N+](=O)[O-]`, which IC50 (Genome polyprotein) is on record?
Its IC50 is 12.5 µM (active).

Which IC50 (Nonstructural protein 1) does the source give for `C=CC(=O)Nc1cccc(Oc2ccnc(Nc3ccc(N4CCN(C)CC4)cc3)n2)c1` here?
Its IC50 is 23.1 µM (active).

Which results are given for `Cc1ccc(/C=N/NC(=O)C(O)c2ccccc2)o1` (centres undefined)?
EC50 [5]: > 112 µM (not active); EC50 [6]: > 112 µM (not active)

Which EC50 [5] does the source give for `Cc1ccc(NC(C)C(=O)N/N=C/c2c[nH]c3ccccc23)cc1` (centres undefined) here?
Its EC50 is > 112 µM (not active).

What about the EC50 [6] of the same compound?
The EC50 was > 112 µM (not active).

Which results are given for `Oc1cccc2ccc(/C=C/c3ccccc3Br)nc12`?
EC50 [10]: 0.212 µM (active); AC50 [4]: 12.9 µM (active); EC50 (BJ [11]): 20 µM (active); EC50 (Streptococcus): 3.96 µM (active); EC50 (BJ [12]): 18.1 µM (active); EC50 [13]: 17.4 µM (active); EC50 (BJ [14]): 108 µM (active)
